Experiments:
Format in all cases: physicochemical
[1] = Stability of aqueous solutions of C21 (free C21 1 mg/mL in 0.9% NaCl pH 9.4; sodium salt likewise) under four storage conditions, HPLC; conditions: for light-induced degradation: aqueous solution, RT/light; for chemical stability: solution stored in dark at 5° C., RT and 40° C. for four weeks
Experimental: The stability of free C21 in 0.9% NaCl pH 9.4 was investigated.
Solutions of 1 mg/mL of C21 were studied for four weeks under four different storage conditions. The solution was filtered through a 0.22 sterile syringe filter to minimize bacterial growth during the stability test. The samples were analysed by HPLC for purity.
The results are summarised in Table 3 below, in which the amount of C21 is given as a percentage of the initial amount of drug. Solution pHs were also measured and are shown within parenthesis in Table 3.
The stability of the sodium salt of C21 was also investigated under the same storage conditions.
At the time for analysis of the one week samples, it was noted that the heating cabinet for storage of samples at 40° C. was broken. In view of this, these samples were thereafter kept at room temperature for three days.

[2] = Solubility of C21 sodium salt in aqueous vehicles
Experimental: In this experiment, C21 sodium salt (Syntagon AB) was added to the vehicle, small amounts at a time. About 20-30 mg of the sodium salt was easily dissolved in all the vehicles tested. Salt was continuously added to the same sample in an attempt to obtain a saturated solution. In this way, higher amounts, such as 40-60 mg/mL could be dissolved. The solubility is probably even higher than this in the vehicles tested, but this was not established in view of the limited amount of drug compound available.

[3] = Excipient compatibility study, 60° C. for 12 days (related impurities)
Experimental: The excipients used in the capsules in Comparative Example 3 above were evaluated along with some additional ones (see Table 8 below).
C21 (sodium salt) used in these experiments was ground and passed through a 300 μm sieve. Mixtures of each excipient and C21 were prepared by thorough mixing in the amounts specified in Table 8. The ratio of C21 to various fillers (D-mannitol, MCC, lactose monohydrate and HPMC) was adapted to give a volume equivalent to the larger part of a capsule.
Three capsules of each type were filled with C21. All preparations were stored under accelerated stability conditions at 60° C. for 12 days prior to analysis.
In addition to the disintegrants (sodium starch glycolate and croscarmellose sodium) mentioned above, crospovidone of two different types (Kollidon® CL (Type A), and Kollidon® CL-SF (Type B) (both BASF) were tested.
Mixtures of 130 mg crospovidone and 200 mg C21 were prepared and were thoroughly mixed using a Turbula mixer for 10 minutes. All of these preparations were analysed at time zero and after storage at accelerated stability conditions at 60° C. for 12 days.

[4] = Accelerated stability of C21/mannitol powder mixtures, 60° C. for 12 days
Experimental: C21 sodium salt was used together with 7 different types of mannitol from two different manufacturers.
C21 and mannitol were added to glass flasks and were mixed together using a Turbula mixer. At a mixing time of 30 minutes, each flask was sampled for homogeneity and related impurities were analysed.
An aliquot of each powder mixture was also subjected to 60° C. for 12 days in a stability analysis. The nominal content of C21 was 7.4% w/w (calculated as free C21) for all mannitol mixtures except one, where an additional strength of 14.8% w/w was also tested.

CCCCOC(=O)NS(=O)(=O)c1sc(CC(C)C)cc1-c1ccc(Cn2ccnc2)cc1 [free C21, N-butyloxycarbonyl-3-(4-imidazol-1-ylmethylphenyl)-5-iso-butylthiophene-2-sulfonamide]
Amount of Free C21, % of initial ([1]; 5° C., dark, 1 week): 101 % of initial
Solution pH (within parenthesis) ([1]; 5° C., dark, 1 week): 9.2
Amount of Free C21, % of initial ([1]; 5° C., dark, 2 weeks): 107 % of initial
Solution pH (within parenthesis) ([1]; 5° C., dark, 2 weeks): 9.2
Amount of Free C21, % of initial ([1]; 5° C., dark, 3 weeks): 108 % of initial
Solution pH (within parenthesis) ([1]; 5° C., dark, 3 weeks): 9.1
Amount of Free C21, % of initial ([1]; 5° C., dark, 4 weeks): 108 % of initial
Solution pH (within parenthesis) ([1]; 5° C., dark, 4 weeks): 9.2
Amount of Free C21, % of initial ([1]; 5° C., dark, Initial): 100 % of initial
Solution pH (within parenthesis) ([1]; 5° C., dark, Initial): 9.4
Amount of Free C21, % of initial ([1]; 40° C., dark, 1 week): 101 % of initial
Solution pH (within parenthesis) ([1]; 40° C., dark, 1 week): 9.0
Amount of Free C21, % of initial ([1]; 40° C., dark, 2 weeks): 111 % of initial
Solution pH (within parenthesis) ([1]; 40° C., dark, 2 weeks): 8.6
Amount of Free C21, % of initial ([1]; 40° C., dark, 3 weeks): 106 % of initial
Solution pH (within parenthesis) ([1]; 40° C., dark, 3 weeks): 8.7
Amount of Free C21, % of initial ([1]; 40° C., dark, 4 weeks): 107 % of initial
Solution pH (within parenthesis) ([1]; 40° C., dark, 4 weeks): 8.7
Amount of Free C21, % of initial ([1]; 40° C., dark, Initial): 100 % of initial
Solution pH (within parenthesis) ([1]; 40° C., dark, Initial): 9.4
Amount of Free C21, % of initial ([1]; RT, dark, 1 week): 97 % of initial
Solution pH (within parenthesis) ([1]; RT, dark, 1 week): (9.2)
Amount of Free C21, % of initial ([1]; RT, dark, 2 weeks): 109 % of initial
Solution pH (within parenthesis) ([1]; RT, dark, 2 weeks): (8.9)
Amount of Free C21, % of initial ([1]; RT, dark, 3 weeks): 105 % of initial
Solution pH (within parenthesis) ([1]; RT, dark, 3 weeks): (9.0)
Amount of Free C21, % of initial ([1]; RT, dark, 4 weeks): 106 % of initial
Solution pH (within parenthesis) ([1]; RT, dark, 4 weeks): (8.9)
Amount of Free C21, % of initial ([1]; RT, dark, Initial): 100 % of initial
Solution pH (within parenthesis) ([1]; RT, dark, Initial): (9.4)
Amount of Free C21, % of initial ([1]; RT, light, 1 week): 96 % of initial
Solution pH (within parenthesis) ([1]; RT, light, 1 week): (9.0)
Amount of Free C21, % of initial ([1]; RT, light, 2 weeks): 44 % of initial
Solution pH (within parenthesis) ([1]; RT, light, 2 weeks): (8.0)
Amount of Free C21, % of initial ([1]; RT, light, 3 weeks): 96 % of initial
Solution pH (within parenthesis) ([1]; RT, light, 3 weeks): (8.5)
Amount of Free C21, % of initial ([1]; RT, light, 4 weeks): 13 % of initial
Solution pH (within parenthesis) ([1]; RT, light, 4 weeks): (7.7)
Amount of Free C21, % of initial ([1]; RT, light, Initial): 100 % of initial
Solution pH (within parenthesis) ([1]; RT, light, Initial): (9.4)
light-induced degradation [1]: light-induced degradation occurs
total impurity peak area ([1]; free C21 solution, samples stored at 5° C., RT/dark and 40° C.): around 2.5 area % of C21 peak area
chemical stability [1]: chemically stable

CCCCOC(=O)[N-]S(=O)(=O)c1sc(CC(C)C)cc1-c1ccc(Cn2ccnc2)cc1.[Na+] [C21 sodium salt]
amount that could be dissolved ([2]; salt continuously added, vehicles tested, saturation not established): 40 to 60 mg/mL
solubility compared with free C21 ([2]; similar experiment): considerably higher than free C21
Concentration (solubility) ([2]; vehicle 0.9% NaCl, pH 9.3): >40 mg/mL
Concentration (solubility) ([2]; vehicle H2O, pH 9.8): >65 mg/mL
Concentration (solubility) ([2]; vehicle PBS pH 7.4, measured pH 9.4): >40 mg/mL
Amount of Free C21, % of initial ([1]; 5° C., dark, 1 week): 108 % of initial
Solution pH (within parenthesis) ([1]; 5° C., dark, 1 week): 8.5
Amount of Free C21, % of initial ([1]; 5° C., dark, 2 weeks): 113 % of initial
Solution pH (within parenthesis) ([1]; 5° C., dark, 2 weeks): 8.4
Amount of Free C21, % of initial ([1]; 5° C., dark, 3 weeks): 113 % of initial
Solution pH (within parenthesis) ([1]; 5° C., dark, 3 weeks): 8.5
Amount of Free C21, % of initial ([1]; 5° C., dark, 4 weeks): 112 % of initial
Solution pH (within parenthesis) ([1]; 5° C., dark, 4 weeks): 8.5
Amount of Free C21, % of initial ([1]; 5° C., dark, Initial): 100 % of initial
Solution pH (within parenthesis) ([1]; 5° C., dark, Initial): 8.3
Amount of Free C21, % of initial ([1]; 40° C., dark, 1 week): 111 % of initial
Solution pH (within parenthesis) ([1]; 40° C., dark, 1 week): 8.6
Amount of Free C21, % of initial ([1]; 40° C., dark, 2 weeks): 111 % of initial
Solution pH (within parenthesis) ([1]; 40° C., dark, 2 weeks): 8.5
Amount of Free C21, % of initial ([1]; 40° C., dark, 3 weeks): 109 % of initial
Solution pH (within parenthesis) ([1]; 40° C., dark, 3 weeks): 8.7
Amount of Free C21, % of initial ([1]; 40° C., dark, 4 weeks): 118 % of initial
Solution pH (within parenthesis) ([1]; 40° C., dark, 4 weeks): 8.1
Amount of Free C21, % of initial ([1]; 40° C., dark, Initial): 100 % of initial
Solution pH (within parenthesis) ([1]; 40° C., dark, Initial): 8.3
Amount of Free C21, % of initial ([1]; RT, dark, 1 week): 115 % of initial
Solution pH (within parenthesis) ([1]; RT, dark, 1 week): 8.6
Amount of Free C21, % of initial ([1]; RT, dark, 2 weeks): 110 % of initial
Solution pH (within parenthesis) ([1]; RT, dark, 2 weeks): 8.8
Amount of Free C21, % of initial ([1]; RT, dark, 3 weeks): 111 % of initial
Solution pH (within parenthesis) ([1]; RT, dark, 3 weeks): 8.8
Amount of Free C21, % of initial ([1]; RT, dark, 4 weeks): 112 % of initial
Solution pH (within parenthesis) ([1]; RT, dark, 4 weeks): 8.2
Amount of Free C21, % of initial ([1]; RT, dark, Initial): 100 % of initial
Solution pH (within parenthesis) ([1]; RT, dark, Initial): 8.3
Amount of Free C21, % of initial ([1]; RT, light, 1 week): 108 % of initial
Solution pH (within parenthesis) ([1]; RT, light, 1 week): (8.4)
Amount of Free C21, % of initial ([1]; RT, light, 2 weeks): 96 % of initial
Solution pH (within parenthesis) ([1]; RT, light, 2 weeks): (8.0)
Amount of Free C21, % of initial ([1]; RT, light, 3 weeks): 72 % of initial
Solution pH (within parenthesis) ([1]; RT, light, 3 weeks): (8.3)
Amount of Free C21, % of initial ([1]; RT, light, 4 weeks): 9 % of initial
Solution pH (within parenthesis) ([1]; RT, light, 4 weeks): (7.3)
Amount of Free C21, % of initial ([1]; RT, light, Initial): 100 % of initial
Solution pH (within parenthesis) ([1]; RT, light, Initial): (8.3)
light-induced degradation [1]: light-induced degradation occurs
chemical stability [1]: chemically stable
Degradation: Sum of impurities (≥0.05%) [3]: 0.26%
Individual Impurity 1 [3]: 0.26 area %
degradation of C21 [3]: No degradation
Impurities ≥0.05% Formed: 1 [4]: 0.26 area %
